Measurements reported in ChEMBL document CHEMBL1201862, “PubChem BioAssay data set” (2004).
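Five compound concentrations were applied to cells in 96-well plates for 48 hours; endpoints were derived by simple linear interpolation of the resulting dose-response curve. The concentration for 50% growth inhibition is given as GI50.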 Activity calls are given as the source filed them. No stated cut-off is given here; in the data, active = GI50 up to about 1.1 µM and inactive = higher.

Assays:
Experiment in all cases: NCI anticancer screen, dose series, 48 h
UACC-257 = test system: UACC-257
SF-268 = test system: SF-268
RXF 393 = test system: RXF 393
HCT-116 = test system: HCT-116
OVCAR-5 = test system: OVCAR-5
786-0 = test system: 786-0
HOP-92 = test system: HOP-92
COLO 205 = test system: COLO 205
LOX IMVI = test system: LOX IMVI
SK-MEL-5 = test system: SK-MEL-5
CAKI-1 = test system: CAKI-1
DU-145 = test system: DU-145
MDA-MB-231 = test system: MDA-MB-231
MDA-N = test system: MDA-N
NCI/ADR-RES = test system: NCI/ADR-RES
UO-31 = test system: UO-31
SF-539 = test system: SF-539
SN12C = test system: SN12C
UACC-62 = test system: UACC-62

Measured: GI50

Cc1cc2[nH]c3[nH]c(=O)[nH]c(=O)c3c2cc1C
inactive: UACC-257 > 100 µM | SF-268 > 100 µM | RXF 393 > 100 µM | HCT-116 > 100 µM | OVCAR-5 > 100 µM | 786-0 > 100 µM | HOP-92 > 100 µM | COLO 205 > 100 µM | LOX IMVI > 100 µM | SK-MEL-5 47.1 µM | CAKI-1 > 100 µM | DU-145 > 100 µM | MDA-MB-231 24.4 µM | MDA-N > 100 µM | NCI/ADR-RES > 100 µM | UO-31 > 100 µM | SF-539 > 100 µM | SN12C > 100 µM | UACC-62 97.1 µM

O=[N+]([O-])c1ccc2c3c1[C@@H]1O[C@@H]1c1cccc(c1-3)[C@@H]1O[C@H]21
inactive: UACC-257 6.87 µM | SF-268 2.56 µM | RXF 393 4.17 µM | HCT-116 2.42 µM | OVCAR-5 13.6 µM | 786-0 2.47 µM | HOP-92 9.46 µM | COLO 205 6.47 µM | LOX IMVI 1.27 µM | SK-MEL-5 10.7 µM | CAKI-1 1.61 µM | DU-145 3.1 µM | MDA-MB-231 6.44 µM | MDA-N 3.04 µM | NCI/ADR-RES 4.91 µM | UO-31 2.07 µM | SF-539 2.02 µM | SN12C 2.71 µM | UACC-62 7.14 µM

CCOC(=O)C(=[N+]=[N-])C(=O)C1(C(=O)OCC)CCN(C(=O)c2ccccc2)C1=O (stereo not given)
inactive: UACC-257 > 100 µM | SF-268 > 100 µM | RXF 393 > 100 µM | HCT-116 > 100 µM | OVCAR-5 > 100 µM | 786-0 > 100 µM | HOP-92 > 100 µM | COLO 205 > 100 µM | LOX IMVI > 100 µM | SK-MEL-5 > 100 µM | CAKI-1 > 100 µM | DU-145 > 100 µM | MDA-MB-231 > 100 µM | MDA-N > 100 µM | NCI/ADR-RES > 100 µM | UO-31 > 100 µM | SF-539 > 100 µM | SN12C > 100 µM | UACC-62 > 100 µM

CC(C)/C(Cl)=N\OC(=O)Nc1ccccc1F
inactive: UACC-257 18.3 µM | SF-268 21 µM | RXF 393 3.15 µM | HCT-116 8.45 µM | OVCAR-5 18.5 µM | 786-0 16.4 µM | HOP-92 2.16 µM | COLO 205 2.03 µM | LOX IMVI 2.55 µM | SK-MEL-5 14.5 µM | CAKI-1 21.3 µM | DU-145 16.4 µM | MDA-MB-231 8.81 µM | MDA-N 16.6 µM | NCI/ADR-RES 15.2 µM | UO-31 16.1 µM | SF-539 17.3 µM | SN12C 10 µM | UACC-62 17.3 µM

C=C1C(C2(C)C(OC(C)=O)CC(=O)OC(C)(COC(C)=O)C2CC(=O)OC)C(OC=O)C(OC(=O)C(O)C(C)CC)C2(C)C(c3ccoc3)CC(=O)C12O (stereo not given)
inactive: UACC-257 > 100 µM | SF-268 3.72 µM | RXF 393 2.7 µM | HCT-116 1.58 µM | OVCAR-5 > 100 µM | 786-0 5.98 µM | HOP-92 7.35 µM | COLO 205 3.66 µM | LOX IMVI 3.82 µM | SK-MEL-5 2.94 µM | CAKI-1 3.27 µM | DU-145 5.46 µM | MDA-MB-231 4.69 µM | MDA-N 7.26 µM | NCI/ADR-RES 45.9 µM | UO-31 3.77 µM | SF-539 4.42 µM | SN12C 10.8 µM | UACC-62 > 30.7 µM
